The source made the active and inactive calls.
What was measured:
[1] = target: Cytochrome P450 2C19 (Homo sapiens, UniProt P33261); experiment: Cytochrome panel assay with activity outcomes. Panel member name: p450-cyp2c19 Compounds with AC50 equal or less than 10 uM are considered active; type: functional; details: read-out: AC50
[2] = target: Cytochrome P450 2C9 (Homo sapiens, UniProt P11712)
[3] = target: Cytochrome P450 3A4 (Homo sapiens, UniProt P08684);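 also: CYP3A4 tested as one member of a cytochrome P450 panel screen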
Chain of Cytochrome P450 3A4 (P08684 whole entry): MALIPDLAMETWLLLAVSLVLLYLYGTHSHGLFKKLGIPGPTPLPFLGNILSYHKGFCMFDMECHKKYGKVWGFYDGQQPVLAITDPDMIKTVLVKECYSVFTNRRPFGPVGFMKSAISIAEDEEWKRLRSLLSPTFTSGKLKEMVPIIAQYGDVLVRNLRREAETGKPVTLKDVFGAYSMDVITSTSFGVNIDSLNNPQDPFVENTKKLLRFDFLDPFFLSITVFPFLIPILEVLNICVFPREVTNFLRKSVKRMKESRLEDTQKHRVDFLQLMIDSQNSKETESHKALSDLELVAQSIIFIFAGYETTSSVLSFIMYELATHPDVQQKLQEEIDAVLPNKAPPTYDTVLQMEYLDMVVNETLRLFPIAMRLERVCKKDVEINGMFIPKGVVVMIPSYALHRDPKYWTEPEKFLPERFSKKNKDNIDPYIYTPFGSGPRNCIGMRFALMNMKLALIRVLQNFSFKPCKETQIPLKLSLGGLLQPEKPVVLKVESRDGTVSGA

[4] = target: Luciferin 4-monooxygenase (Photinus pyralis, UniProt P08659); experiment: inhibition of purified Photinus pyralis luciferase – biochemical, luminescence, dose response (AID 1891)
[5] = Luminescence Cell-Based Dose Confirmation HTS to Identify Inhibitors of Platelet Dense Granule Release. [Related pubchem assays: 1663 (Primary HTS), 1678 (Summary of Project)]; type: functional
[6] = viability of PTEN-deleted HCT116 cells – cell-based, HCT116 PTEN knockout, dose response (AID 1047); type: functional;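 also: HCT116 colon tumor cells with PTEN knocked out; cells exposed to compound for 60 hours before readout; potency for loss of cell viability measured by luminescence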
[7] = viability of HCT116 lacking mutant beta-catenin – cell-based, human colon tumor, dose response (AID 1045); type: functional;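 also: HCT116 colon tumor cells with beta catenin knocked out; cells exposed to compound for 60 hours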
[8] = target: Estrogen receptor beta (Homo sapiens, UniProt Q92731);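 also: recombinant ER-beta bound to coactivator SRC1 peptide in presence of estradiol agonist; inhibitors block coactivator peptide binding and lower the FRET signal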
Chain of Estrogen receptor beta (Q92731 whole entry): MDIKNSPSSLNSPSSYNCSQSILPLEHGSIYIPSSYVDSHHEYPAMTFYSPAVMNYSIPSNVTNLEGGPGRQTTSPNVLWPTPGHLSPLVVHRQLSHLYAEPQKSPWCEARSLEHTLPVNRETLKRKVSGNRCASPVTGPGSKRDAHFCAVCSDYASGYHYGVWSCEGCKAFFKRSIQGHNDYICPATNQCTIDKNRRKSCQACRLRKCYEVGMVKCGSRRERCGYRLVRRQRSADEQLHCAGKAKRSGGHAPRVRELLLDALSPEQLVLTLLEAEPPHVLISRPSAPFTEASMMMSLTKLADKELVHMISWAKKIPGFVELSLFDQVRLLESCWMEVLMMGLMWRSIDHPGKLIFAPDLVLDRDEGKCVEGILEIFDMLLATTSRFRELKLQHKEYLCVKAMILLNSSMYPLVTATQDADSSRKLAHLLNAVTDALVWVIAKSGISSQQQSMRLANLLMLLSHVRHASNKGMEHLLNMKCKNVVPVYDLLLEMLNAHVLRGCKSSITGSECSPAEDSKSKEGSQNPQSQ

[9] = target: Paired box protein Pax-8 (Homo sapiens, UniProt Q06710); experiment: PAX8 transcriptional activity inhibition in RMG-I – RMG-I cells, luciferase, cherry-pick, dose response (AID 687027); type: functional, cell-based;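 also: luciferase reporter driven by Pax8 target thyroperoxidase promoter measured by SteadyGlo luminescence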
Chain of Paired box protein Pax-8 (Q06710 whole entry): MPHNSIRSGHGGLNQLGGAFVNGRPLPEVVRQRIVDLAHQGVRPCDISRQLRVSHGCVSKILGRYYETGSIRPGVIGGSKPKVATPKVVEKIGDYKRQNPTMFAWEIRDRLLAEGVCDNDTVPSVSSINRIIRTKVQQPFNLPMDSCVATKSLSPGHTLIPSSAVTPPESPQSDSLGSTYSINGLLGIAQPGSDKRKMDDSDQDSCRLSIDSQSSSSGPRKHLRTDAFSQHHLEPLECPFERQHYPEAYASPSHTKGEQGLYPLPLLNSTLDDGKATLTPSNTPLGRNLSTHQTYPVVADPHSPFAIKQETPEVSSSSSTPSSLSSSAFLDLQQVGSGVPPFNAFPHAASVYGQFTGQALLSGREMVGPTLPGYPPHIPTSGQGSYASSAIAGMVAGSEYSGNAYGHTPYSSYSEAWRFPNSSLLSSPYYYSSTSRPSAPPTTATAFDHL

[10] = OVCAR8 cell viability loss – plate reader, dry powder samples, PAX8 project, dose response (AID 743197); type: functional, cell-based; details: OVCAR-8
[11] = test system: H9c2; experiment: cells; type: functional, cell-based; details: Rattus norvegicus, H9c2, Myocardium;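 also: confirmatory concentration-response retest of ultra-high-throughput screening hits for modulation of myocardial damage; cell death induced by hydrogen peroxide oxidative stress; compound pretreatment for 60 min then peroxide exposure for 2 h; potency is for protecting the cells against peroxide damage rather than for killing them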
[12] = target: T1, Fatty acid synthase (Homo sapiens, UniProt P49327); experiment: inhibition of human FAS-TE enzyme activity – biochemical, endpoint fluorescence intensity, uHTS hits, dose response (AID 624327); type: functional;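 also: fluorescence from hydrolysis of an O-methyl fluorescein acyl ester substrate by the enzyme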
T1 sequence (P49327 whole entry): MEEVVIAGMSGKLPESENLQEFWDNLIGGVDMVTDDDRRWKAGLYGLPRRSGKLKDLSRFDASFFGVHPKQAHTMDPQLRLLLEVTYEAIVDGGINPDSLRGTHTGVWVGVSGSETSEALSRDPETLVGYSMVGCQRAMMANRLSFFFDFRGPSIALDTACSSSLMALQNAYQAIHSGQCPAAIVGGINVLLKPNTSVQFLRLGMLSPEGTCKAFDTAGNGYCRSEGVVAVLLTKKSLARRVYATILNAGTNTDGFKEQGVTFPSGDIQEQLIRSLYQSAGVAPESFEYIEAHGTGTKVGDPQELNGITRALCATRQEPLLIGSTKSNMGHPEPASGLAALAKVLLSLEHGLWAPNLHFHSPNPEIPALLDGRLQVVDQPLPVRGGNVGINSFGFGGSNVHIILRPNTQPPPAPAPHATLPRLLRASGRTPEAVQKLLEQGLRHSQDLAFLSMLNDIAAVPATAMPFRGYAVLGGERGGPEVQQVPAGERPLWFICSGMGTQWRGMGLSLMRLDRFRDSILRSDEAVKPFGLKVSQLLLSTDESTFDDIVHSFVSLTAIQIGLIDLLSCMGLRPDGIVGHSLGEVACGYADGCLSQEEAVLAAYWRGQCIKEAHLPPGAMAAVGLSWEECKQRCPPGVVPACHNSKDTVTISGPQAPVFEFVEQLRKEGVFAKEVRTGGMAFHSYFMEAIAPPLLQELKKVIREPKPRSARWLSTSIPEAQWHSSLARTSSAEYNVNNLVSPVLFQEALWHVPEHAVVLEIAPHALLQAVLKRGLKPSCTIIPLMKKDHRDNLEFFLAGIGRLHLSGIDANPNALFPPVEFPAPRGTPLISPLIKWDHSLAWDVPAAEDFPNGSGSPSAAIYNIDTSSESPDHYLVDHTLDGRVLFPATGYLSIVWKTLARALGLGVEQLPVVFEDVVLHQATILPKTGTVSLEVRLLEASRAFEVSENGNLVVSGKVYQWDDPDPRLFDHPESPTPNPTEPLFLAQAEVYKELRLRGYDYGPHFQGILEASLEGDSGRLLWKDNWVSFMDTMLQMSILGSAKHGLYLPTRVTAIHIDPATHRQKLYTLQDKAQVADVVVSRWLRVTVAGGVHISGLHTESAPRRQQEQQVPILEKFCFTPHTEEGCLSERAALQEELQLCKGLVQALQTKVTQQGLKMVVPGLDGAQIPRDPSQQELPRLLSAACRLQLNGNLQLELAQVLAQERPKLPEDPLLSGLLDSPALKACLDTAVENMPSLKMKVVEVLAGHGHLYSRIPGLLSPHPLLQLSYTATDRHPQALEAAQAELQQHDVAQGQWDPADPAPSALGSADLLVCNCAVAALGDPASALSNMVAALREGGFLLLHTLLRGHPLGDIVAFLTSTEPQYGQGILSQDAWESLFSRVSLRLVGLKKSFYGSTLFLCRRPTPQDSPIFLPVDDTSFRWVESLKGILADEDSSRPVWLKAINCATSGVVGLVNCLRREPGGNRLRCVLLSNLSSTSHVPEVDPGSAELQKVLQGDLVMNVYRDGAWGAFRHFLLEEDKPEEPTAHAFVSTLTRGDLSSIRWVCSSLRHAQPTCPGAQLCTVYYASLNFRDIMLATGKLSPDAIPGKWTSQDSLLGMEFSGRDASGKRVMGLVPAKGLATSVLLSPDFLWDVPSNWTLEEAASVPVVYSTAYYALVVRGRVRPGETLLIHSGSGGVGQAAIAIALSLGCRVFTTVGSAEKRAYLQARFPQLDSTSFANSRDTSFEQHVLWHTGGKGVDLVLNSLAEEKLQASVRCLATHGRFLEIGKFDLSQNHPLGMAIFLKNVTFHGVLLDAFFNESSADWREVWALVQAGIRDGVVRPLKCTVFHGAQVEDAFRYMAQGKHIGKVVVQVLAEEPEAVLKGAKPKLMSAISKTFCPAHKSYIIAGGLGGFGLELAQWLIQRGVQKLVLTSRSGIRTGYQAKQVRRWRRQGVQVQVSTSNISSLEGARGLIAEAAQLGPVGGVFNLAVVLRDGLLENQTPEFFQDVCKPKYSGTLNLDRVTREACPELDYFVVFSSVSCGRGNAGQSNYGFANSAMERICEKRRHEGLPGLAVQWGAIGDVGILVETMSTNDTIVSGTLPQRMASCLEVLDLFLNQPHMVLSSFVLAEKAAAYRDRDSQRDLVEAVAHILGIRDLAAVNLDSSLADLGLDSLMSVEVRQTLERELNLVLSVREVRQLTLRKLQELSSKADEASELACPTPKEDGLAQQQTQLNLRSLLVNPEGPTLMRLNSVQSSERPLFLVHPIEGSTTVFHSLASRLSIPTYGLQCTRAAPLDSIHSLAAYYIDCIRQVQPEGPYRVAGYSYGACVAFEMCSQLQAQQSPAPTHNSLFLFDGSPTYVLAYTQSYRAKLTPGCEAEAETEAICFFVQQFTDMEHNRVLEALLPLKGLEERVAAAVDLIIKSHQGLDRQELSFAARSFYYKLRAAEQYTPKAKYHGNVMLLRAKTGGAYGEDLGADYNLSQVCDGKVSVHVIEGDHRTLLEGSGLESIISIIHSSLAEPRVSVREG

[13] = target: T1, Fatty acid synthase; experiment: inhibition of human FAS-TE enzyme activity – biochemical, kinetic fluorescence intensity, dose response (AID 624326); type: functional;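 also: rate of fluorescence rise from hydrolysis of a fluorogenic O-methyl fluorescein ester substrate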
[14] = Trypanosoma cruzi growth suppression in host cells – NIH3T3 host cells, beta-gal luminescence, confirmation (AID 2044); type: functional, cell-based;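 also: intracellular parasites grown in NIH/3T3 mouse fibroblasts as host cells; luminescent beta-galactosidase reporter signal from transgenic T. cruzi replicating inside host cells; inhibitors lower the luminescence signal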
[15] = NIH3T3 cell viability loss – ATP luminescence, mouse fibroblasts, counter-screen, dose response (AID 2010); type: functional, cell-based;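 also: cells exposed to compound for about 90 hours before reading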
[16] = target: DNA dC->dU-editing enzyme APOBEC-3G (Homo sapiens, UniProt Q9HC16); experiment: Dose Response confirmation of small molecule APOBEC3G DNA Deaminase Inhibitors via a fluorescence-based single-stranded DNA deaminase assay. [Related pubchem assays (depositor defined):AID493012, AID493028]; type: functional
[17] = target: T2, RNA-binding protein pos-1 (Caenorhabditis elegans, UniProt G5EF15); experiment: disruptors of C. elegans POS-1 RNA interaction – biochemical, fluorescence polarization, dose response (AID 1964);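 also: purified POS-1 fused to maltose binding protein made in E. coli; potency of compounds blocking POS-1 binding to fluorescent RNA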
T2 sequence (G5EF15 whole entry): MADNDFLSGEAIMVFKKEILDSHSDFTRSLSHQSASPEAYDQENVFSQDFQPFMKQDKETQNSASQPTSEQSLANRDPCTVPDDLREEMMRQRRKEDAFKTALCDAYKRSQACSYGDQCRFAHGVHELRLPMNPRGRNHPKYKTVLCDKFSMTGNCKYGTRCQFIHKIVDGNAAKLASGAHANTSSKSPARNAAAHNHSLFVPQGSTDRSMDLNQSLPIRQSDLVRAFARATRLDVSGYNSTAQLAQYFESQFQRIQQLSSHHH

[18] = target: T3, Zinc finger protein mex-5 (Caenorhabditis elegans, UniProt Q9XUB2); experiment: potency of MEX-5 RNA-binding blockers – biochemical, C. elegans, fluorescence polarization, dose response (AID 1960)
T3 sequence (Q9XUB2 whole entry): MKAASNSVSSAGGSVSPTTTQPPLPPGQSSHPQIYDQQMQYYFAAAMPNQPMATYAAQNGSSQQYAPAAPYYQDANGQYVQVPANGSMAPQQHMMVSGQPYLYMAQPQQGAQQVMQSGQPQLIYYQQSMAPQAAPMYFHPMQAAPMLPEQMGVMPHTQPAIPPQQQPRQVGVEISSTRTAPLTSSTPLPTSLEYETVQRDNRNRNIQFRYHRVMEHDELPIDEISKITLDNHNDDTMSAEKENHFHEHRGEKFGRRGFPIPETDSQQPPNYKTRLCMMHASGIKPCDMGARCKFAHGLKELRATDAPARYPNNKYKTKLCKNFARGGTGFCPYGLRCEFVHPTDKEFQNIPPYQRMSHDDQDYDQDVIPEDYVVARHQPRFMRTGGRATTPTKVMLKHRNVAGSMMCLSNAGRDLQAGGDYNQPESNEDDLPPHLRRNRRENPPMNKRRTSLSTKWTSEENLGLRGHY

[19] = cells; type: functional
[20] = target: T4, Cytochrome P450 1A2 (Homo sapiens, UniProt P05177)
T4 sequence (P05177 whole entry): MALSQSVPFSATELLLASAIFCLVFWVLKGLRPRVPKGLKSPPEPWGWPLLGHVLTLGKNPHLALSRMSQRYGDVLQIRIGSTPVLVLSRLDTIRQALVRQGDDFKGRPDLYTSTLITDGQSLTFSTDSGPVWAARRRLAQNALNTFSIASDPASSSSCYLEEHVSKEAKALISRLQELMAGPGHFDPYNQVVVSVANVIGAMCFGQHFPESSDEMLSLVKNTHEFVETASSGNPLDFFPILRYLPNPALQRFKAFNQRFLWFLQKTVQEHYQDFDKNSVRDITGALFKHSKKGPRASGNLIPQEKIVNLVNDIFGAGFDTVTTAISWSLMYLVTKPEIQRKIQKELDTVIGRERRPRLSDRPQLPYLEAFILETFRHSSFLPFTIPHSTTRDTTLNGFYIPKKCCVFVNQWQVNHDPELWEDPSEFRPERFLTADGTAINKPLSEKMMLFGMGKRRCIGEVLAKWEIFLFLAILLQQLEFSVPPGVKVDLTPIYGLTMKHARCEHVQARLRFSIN

[21] = target: Eukaryotic translation initiation factor 4E (Mus musculus, UniProt P63073); experiment: blockers of eIF4G binding by eIF4E – biochemical, TR-FRET, dose response (AID 855); type: functional;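 also: potency for disrupting eIF4E binding to eIF4GI seen as loss of FRET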
[22] = target: 26S proteasome non-ATPase regulatory subunit 14 (Homo sapiens, UniProt O00487); experiment: inhibition of proteasome subunit RPN11 – biochemical, fluorescence polarization, uHTS hits, confirmation (AID 602368); type: functional
Chain of 26S proteasome non-ATPase regulatory subunit 14 (O00487 whole entry): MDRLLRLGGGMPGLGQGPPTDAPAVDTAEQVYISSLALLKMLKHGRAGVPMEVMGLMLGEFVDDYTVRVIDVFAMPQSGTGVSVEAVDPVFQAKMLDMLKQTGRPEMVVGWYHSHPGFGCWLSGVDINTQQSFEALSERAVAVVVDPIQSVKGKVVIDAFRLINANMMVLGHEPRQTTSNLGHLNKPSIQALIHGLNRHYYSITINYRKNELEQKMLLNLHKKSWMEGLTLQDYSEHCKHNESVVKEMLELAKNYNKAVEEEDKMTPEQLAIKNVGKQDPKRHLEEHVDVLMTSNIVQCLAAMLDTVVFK

[23] = target: T5, Corticotropin-releasing factor receptor 2/Corticotropin-releasing factor-binding protein (Homo sapiens, UniProt P24387+Q13324); experiment: activators of CRF receptor 2 with binding protein – uHTS hits, confirmation (AID 602473); type: functional; details: read-out: EC50_Mean
T5 sequence (Q13324 whole entry): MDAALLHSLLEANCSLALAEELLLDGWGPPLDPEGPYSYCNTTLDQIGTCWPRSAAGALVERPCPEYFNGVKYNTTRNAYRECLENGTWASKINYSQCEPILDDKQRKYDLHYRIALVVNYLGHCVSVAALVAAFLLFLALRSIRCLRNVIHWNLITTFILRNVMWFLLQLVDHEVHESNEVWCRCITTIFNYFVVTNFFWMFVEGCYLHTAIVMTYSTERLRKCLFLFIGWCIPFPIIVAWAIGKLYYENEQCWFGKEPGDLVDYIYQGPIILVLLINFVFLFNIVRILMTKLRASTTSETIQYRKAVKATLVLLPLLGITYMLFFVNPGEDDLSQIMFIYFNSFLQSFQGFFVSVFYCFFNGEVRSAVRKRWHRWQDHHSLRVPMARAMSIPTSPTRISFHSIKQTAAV
T5 sequence (P24387 whole entry): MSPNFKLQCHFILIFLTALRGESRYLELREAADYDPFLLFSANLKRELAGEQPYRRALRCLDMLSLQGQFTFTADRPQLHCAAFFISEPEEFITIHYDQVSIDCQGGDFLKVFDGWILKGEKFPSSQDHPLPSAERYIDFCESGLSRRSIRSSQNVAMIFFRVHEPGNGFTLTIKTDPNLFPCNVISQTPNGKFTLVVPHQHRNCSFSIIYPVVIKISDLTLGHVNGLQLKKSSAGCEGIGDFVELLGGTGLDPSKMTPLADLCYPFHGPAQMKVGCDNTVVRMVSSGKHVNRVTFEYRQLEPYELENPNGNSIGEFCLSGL

[24] = target: 72 kDa type IV collagenase (Homo sapiens, UniProt P08253); experiment: Dose Response validation of uHTS RPN11 inhibitor hits using a MMP-2 Fluorescence assay.; type: functional
Chain of 72 kDa type IV collagenase (P08253 whole entry): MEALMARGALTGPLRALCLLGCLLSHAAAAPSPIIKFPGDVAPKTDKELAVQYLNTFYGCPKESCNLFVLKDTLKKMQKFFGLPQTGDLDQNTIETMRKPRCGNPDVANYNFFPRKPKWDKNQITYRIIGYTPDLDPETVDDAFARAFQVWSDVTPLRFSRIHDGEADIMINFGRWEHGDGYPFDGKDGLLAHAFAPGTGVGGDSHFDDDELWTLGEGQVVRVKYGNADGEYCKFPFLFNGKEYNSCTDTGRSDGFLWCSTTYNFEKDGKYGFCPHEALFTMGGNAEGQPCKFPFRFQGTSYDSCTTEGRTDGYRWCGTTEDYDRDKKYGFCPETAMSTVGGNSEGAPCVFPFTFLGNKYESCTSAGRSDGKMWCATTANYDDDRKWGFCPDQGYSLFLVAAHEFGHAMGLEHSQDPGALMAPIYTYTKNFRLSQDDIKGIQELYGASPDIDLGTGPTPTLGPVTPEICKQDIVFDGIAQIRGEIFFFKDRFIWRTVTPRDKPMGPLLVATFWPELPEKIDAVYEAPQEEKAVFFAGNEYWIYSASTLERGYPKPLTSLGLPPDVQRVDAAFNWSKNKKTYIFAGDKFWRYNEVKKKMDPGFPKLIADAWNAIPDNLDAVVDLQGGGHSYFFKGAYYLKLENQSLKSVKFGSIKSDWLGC

[25] = target: Prothrombin (Bos taurus, UniProt P00735); experiment: thrombin protease inhibitors – biochemical, fluorescence polarization, uHTS hits, dose response (AID 602369); type: functional

CC(C)(C)c1ccc(C(=O)NC(Cc2ccccc2)C(=O)O)cc1 (centres undefined)
AC50 [1]: 22.4 µM (inconclusive) | AC50 [2]: 25.1 µM (inconclusive) | AC50 [3]: inconclusive

O=C(O)CC(O)C(=O)O (centres undefined) [MALIC ACID]
AC50 [3]: inconclusive

COC(=O)C1(C(F)(F)F)N=C2Sc3ccccc3N2C(N2CCOCC2)=N1 (centres undefined)
EC50 [4]: > 112 µM (not active) | EC50 [5]: > 112 µM (not active) | EC50 [6]: 23.9 µM (active) | EC50 [7]: 21.7 µM (active)

CCN1C2=C(C(=O)CCC2)C(c2ccc(O)c(Br)c2)C2=C1CCCC2=O
IC50 [8]: > 50 µM (not active)

CN1c2ccc(-c3ccccc3)cc2[C@@H]2[C@@H](CCN2C(=O)NC2CCCCC2)[C@@H]1CO
AC50 [9]: 11.1 µM (active) | AC50 [10]: 49.6 µM (active)

CCOc1ccccc1C(=O)N1CCN=C1SC
IC50 [8]: > 50 µM (not active)

O=CNc1cc(-c2ccc(C(=O)NC3CC3)cc2)cn2c(-c3ccc(F)c(Cl)c3)cnc12
IC50 [11]: > 79 µM (inactive)

O=C(Nc1nc(-c2cc(Cl)sc2Cl)cs1)c1ccc(Br)s1
EC50 [6]: 17.1 µM (active) | EC50 [7]: 20.2 µM (active)

O=C(O)CCCNc1c(C(=O)Nc2ccc(Cl)cc2)cc([N+](=O)[O-])cc1[N+](=O)[O-]
IC50 [12]: 5.31 µM (active) | IC50 [13]: 4.79 µM (active)

COc1ccccc1NS(=O)(=O)c1cc(NC(=O)C2CCC2)ccc1N1CCCCC1
EC50 [14]: 2.44 µM (active) | EC50 [15]: > 30 µM (not active) | IC50 [16]: 46.8 µM (active)

Oc1nc(CSc2nnc(-c3cccnc3)n2C2CCCCC2)nc2ccccc12
IC50 [11]: 22.1 µM (active)

Cc1ccc(-c2nc3cc(C(N)=O)ccc3c(O)c2O)cc1
EC50 [17]: 7.27 µM (active) | EC50 [18]: 8.44 µM (inconclusive) | IC50 [11]: 11.3 µM (active)

C[C@H](CO)N1C[C@H](C)[C@@H](CN(C)C(=O)NC2CCCCC2)Oc2c(NC(=O)Nc3ccc4c(c3)OCO4)cccc2C1=O
IC50 [12]: 1.66 µM (active) | IC50 [13]: 4.32 µM (active)

O=C(c1ccco1)N1CCC2(CCN(Cc3ccccc3)CC2)CC1
AC50 [3]: inconclusive

O=C(COC(=O)c1ccc([N+](=O)[O-])s1)Nc1ccc(Cl)cn1
IC50 [19]: 8.49 µM (active) | IC50 [11]: 22.2 µM (active)

CCOC(=O)CNC(=O)C(Cc1ccccc1)NS(=O)(=O)c1ccc2c(c1)CCC(=O)N2 (centres undefined)
IC50 [8]: > 50 µM (not active)

Cc1ccc(C(=O)ON=C2CCN(S(=O)(=O)c3ccccc3)CC2)cc1
AC50 [1]: 5.01 µM (inconclusive) | AC50 [20]: 28.2 µM (inconclusive) | AC50 [3]: inconclusive

C=CCn1c(-c2cc(OC)c(OC)c(OC)c2)n[nH]c1=S
IC50 [21]: > 64 µM (inactive)

CCOc1ccc(Cl)cc1CNCCNCC(C)O.Cl (centres undefined)
AC50 [3]: inconclusive

CCCC#Cc1ccc([C@H]2[C@H]3CN(S(=O)(=O)Cc4ccccc4)CCCCN3[C@H]2CO)cc1
AC50 [9]: 10.9 µM (active) | AC50 [10]: 60.2 µM (active)

O=C(NCCCCc1ccccc1)C1CC(c2ccc([N+](=O)[O-])cc2)=NO1 (centres undefined)
IC50 [12]: 13.6 µM (active) | IC50 [13]: 14.1 µM (active)

COCCNC(=O)CCCn1c(=O)c2ccccc2n(Cc2cccc([N+](=O)[O-])c2)c1=O
IC50 [12]: 11.6 µM (active) | IC50 [13]: 15.8 µM (active)

O=C(Nc1cccc(F)c1)N1CCCCN2[C@@H](CO)[C@@H](c3ccc(-c4ccncc4)cc3)[C@@H]2C1
AC50 [9]: 32.2 µM (active) | AC50 [10]: > 70 µM (inactive)

Nc1ccc(/C=C/C(=O)c2ccco2)cc1
IC50 [22]: 18 µM (active) | EC50 [23]: 7.4 µM (active) | IC50 [24]: > 100 µM (inactive) | IC50 [25]: 27.5 µM (active)

Cc1oc(-c2ccc(Cl)cc2)nc1CN1CCC(C(=O)N2CCc3ccccc3C2)CC1
EC50 [6]: 16.5 µM (active) | EC50 [7]: 14.7 µM (active)

O=S1(=O)CC/C(=N/Nc2ccc(C(F)(F)F)cn2)c2cc(F)ccc21
IC50 [21]: 50 µM (inactive)

C=CCCC(=O)N1C[C@H]2CON(C)[C@H]2C[C@H]1c1ccc(N2CCCCC2)cc1
IC50 [22]: 52.2 µM (active) | IC50 [24]: > 100 µM (inactive) | IC50 [25]: 57.2 µM (active)

O=C(c1ccco1)N1CCC2(CCN(Cc3nccs3)CC2)CC1
AC50 [3]: inconclusive

— ChEMBL document CHEMBL1201862, “PubChem BioAssay data set” (2004)
